{"source": "patent US20090317376A1", "about": "“Compositions And Methods For Lipo Modeling” (Georgetown University MEDICAL SCHOOL, priority 2005, published 2009)", "tested_on": "human fat pads", "assay": "Human fat xenograft in nude athymic mice", "format": "in vivo", "experimental": "In addition to augmenting mouse fat with NPY, human fat from elective liposuction surgery is harvested by using a closed syringe system (Cell Friendly, Tulip Medical) to minimize cell trauma during harvest and aliquots of 100 μl are injected subcutaneously into a nude athymic mouse. Slow release pellets of NPY or placebo are subcutaneously implanted within 1 cm of the fat pad, replaced 2 weeks later, and then harvested after 4 weeks of formation of fat pads. Ultrasound is used to monitor vascularization of fat pads at various time points. The time-course of expression of the NPY system and its downstream mediators is determined in relation to innervation, vascularization and fat growth (by MRI, ultrasound, IHC). Dependence of adipogenesis on angiogenesis is assessed by comparing non-specific, antiangiogenic therapy with the blockade of the NPY-Y2 angiogenic pathway. […] This observation is confirmed by ultrasound (FIG. 7, bottom).\nHuman fat implantation: The processed fat for injection is loaded into syringes. The nude mice are anesthetized and slow release pellets inserted as described above. A small nick is made with a pair of sterile scissors in the close proximity of the pellets and 100 μl of fat is implanted using an 18 gauge Coleman infiltration cannula (Byron Medical) attached to the syringe. If necessary, the skin wound is closed with medical cyanoacrylate and the mouse is allowed to recover. The fat pad growth is monitored and the sample harvested as described above.\nUltrasonography: The mice are anesthetized by inhalation of isoflurane 1-3% in oxygen, hair removed with depilatory cream and a sterile water based ultrasonic gel is applied to the area (Aquasonic gel—Visual Sonics). The mouse is placed in the Visual Sonics mouse holder containing a thermostatically controlled heating pad to maintain mouse body temperature. The imaging is performed with a small animal ultrasound system, Visual Sonics Vivo 660 (55 MHz).\n1. Cell culture: 3T3-L1 preadipocyte cells, (gift from Dr. Lane,^34) were cultured in DMEM high glucose media with glutamine, 10% calf sera (Gemini Bioproducts), d-Biotin (8 μg/ml) and Pantothenate (8 μg/ml) (Sigma). SK-N-BE(2) neuroblastoma cells (ATCC) were cultured in EMEM/F12K with 10% fetal bovine sera (FBS). HMVEC endothelial cells (Cambrex) were cultured in endothelial cell growth media (Cambrex). All media was supplemented with 100 units/ml penicillin, 100 μg/ml streptomycin and […] amphotericin. 2. […] After 24 h, cells were harvested in a 96-well harvester (Tomtec) and counted in a Betaplate Liquid Scintillation Counter (Wallac). […] After 48 hr, the cells were counted with a Beckman Coulter Counter. […]", "key": {"[1]": {"settings": "NPY pellet vs placebo pellet, FIG. 7"}}, "note": "Entries after “also recorded” stand apart in the source; their conditions may differ."}
{"substance": "neuropeptide Y [NPY]", "values": [{"measurement": "xenograft vascularization (density of CD31+ vessels)", "setting": "NPY pellet 1 μg/14 days alongside the xenograft", "result": "increased"}, {"measurement": "xenograft 3-month survival", "setting": "NPY pellet 1 μg/14 days, placebo-treated grafts underwent resorption", "result": "increased"}, {"measurement": "areas of more dense necrotic tissue (ultrasound)", "setting": "[1]", "result": "more in NPY-treated than placebo-treated"}, {"measurement": "vacuolization / holes in fat pads (ultrasound, IHC)", "setting": "[1]", "result": "more holes in the placebo-pellet treated fat pads; also recorded: more numerous in placebo-treated than NPY-treated fat pads"}]}
